Patent publication US11407760B2, “Dioxinoquinoline compounds, preparation method and uses thereof” (BEIJING SCITECH-MQ PHARMACEUTICALS LIMITED, priority 2018, dated 2022)

test system: MHCC97H cells; assay: Inhibitory activity on the proliferation of MHCC97H cells (CCK-8); assay type: cell-based; details: Homo sapiens, MHCC97H cell proliferation, 72 hours of incubation
Experimental: Biological Example 3. Assay of the Inhibitory Activity of Small Molecular Compounds on the Proliferation of MHCC97H Cells
The specific steps of the assay are as follows:
1. Dilution of compounds: a total of 9 concentrations were obtained using a 3-fold gradient dilution from the highest concentration of 5000 nM (the maximum final concentration of the drug used in this assay was 5000 nM, and the minimum final concentration was 0.76 nM).
2. MHCC97H cells were collected, then transferred to a 15 mL centrifuge tube, and centrifuged at 1000 rpm for 5 minutes.
3. The supernatant was discarded, and the complete medium was added and pipetted evenly, 10 μL of cell suspension was taken out and mixed evenly with 10 μL of 0.4% trypan blue, the counting was carried out with a cell counter, and the number and survival rate of cells were recorded;
4. The cell suspension was seeded into a 96-well plate at 5000 cells/80 μL per well;
5. 20 μL of the corresponding 5× compound solution diluted with the medium mentioned above was added to each well and mixed evenly;
6. After 72 hours of incubation, 10 μL of CCK-8 reagent was added to each well and incubated for another 2 hours (the reaction time can be adjusted according to the color depth);
7. The OD value was read at 450 nm on a multi-function plate reader.
8. Data processing: cell survival rate (%)=[(As−Ab)/(Ac−Ab)]*100%
As: OD value of assay well (medium containing cells, CCK-8, compound),
Ac: OD value of control well (medium containing cells, CCK-8),
Ab: OD value of blank well (CCK-8, medium without cell and compound),
The values were then imported into Graphpad Prism5 software for curve fitting, and IC50 was calculated.
Table 3 lists the assay results of the inhibitory activity of some compounds disclosed herein on the proliferation of the MHCC97H cell line.

| SMILES | IC50 [nM] |
| --- | --- |
| COc1cc2nccc(Oc3ccc(NC(=O)C4(C(=O)Nc5ccc(F)cc5)CC4)cc3)c2c2c1OCCO2 [Example 1, N-(4-fluorophenyl)-N-(4-((5-methoxy-2,3-dihydro-[1,4]dioxino[2,3-f]quinolin-10-yl)oxy)phenyl)cyclopropan-1,1-dicarboxamide] | < 50 |
| COc1cc2nccc(Oc3ccc(NC(=O)C4(C(=O)Nc5ccc(F)cc5)CC4)cc3F)c2c2c1OCCO2 [Example 2, N-(3-fluoro-4-((5-methoxy-2,3-dihydro-[1,4]dioxino[2,3-f]quinolin-10-yl)oxy)phenyl)-N-(4-fluorophenyl)cyclopropan-1,1-dicarboxamide] | < 50 |
| COc1cc2nccc(Oc3ccc(NC(=O)C4(C(=O)Nc5ccc(F)cc5)CC4)c(F)c3)c2c2c1OCCO2 [Example 3, N-(2-fluoro-4-((5-methoxy-2,3-dihydro-[1,4]dioxino[2,3-f]quinolin-10-yl)oxy)phenyl)-N-(4-fluorophenyl)cyclopropan-1,1-dicarboxamide] | < 50 |
| O=C(Nc1ccc(F)cc1)C1(C(=O)Nc2ccc(Oc3ccnc4cc(OCCCN5CCOCC5)c5c(c34)OCCO5)cc2)CC1 [Example 4, N-(4-fluorophenyl)-N-(4-((5-(3-morpholinopropoxy)-2,3-dihydro-[1,4]dioxino[2,3-f]quinolin-10-yl)oxy)phenyl)cyclopropan-1,1-dicarboxamide] | < 50 |
| O=C(Nc1ccc(F)cc1)C1(C(=O)Nc2ccc(Oc3ccnc4cc(OCCCN5CCOCC5)c5c(c34)OCCO5)c(F)c2)CC1 [Example 5, N-(3-fluoro-4-((5-(3-morpholinopropoxy)-2,3-dihydro-[1,4]dioxino[2,3-f]quinolin-10-yl)oxy)phenyl)-N-(4-fluorophenyl)cyclopropan-1,1-dicarboxamide] | < 50 |
| O=C(Nc1ccc(F)cc1)C1(C(=O)Nc2ccc(Oc3ccnc4cc(OCCCN5CCOCC5)c5c(c34)OCCO5)cc2F)CC1 [Example 6, N-(2-fluoro-4-((5-(3-morpholinopropoxy)-2,3-dihydro-[1,4]dioxino[2,3-f]quinolin-10-yl)oxy)phenyl)-N-(4-fluorophenyl)cyclopropan-1,1-dicarboxamide] | < 50 |
| CCOc1cc2nccc(Oc3ccc(NC(=O)C4(C(=O)Nc5ccc(F)cc5)CC4)cc3F)c2c2c1OCCO2 [Example 7, N-(4-((5-ethoxy-2,3-dihydro-[1,4]dioxino[2,3-f]quinolin-10-yl)oxy)-3-fluorophenyl)-N-(4-fluorophenyl)cyclopropan-1,1-dicarboxamide] | < 50 |
| CN(C)CCCOc1cc2nccc(Oc3ccc(NC(=O)C4(C(=O)Nc5ccc(F)cc5)CC4)cc3F)c2c2c1OCCO2 [Example 8, N-(4-((5-(3-(dimethylamino)propoxy)-2,3-dihydro-[1,4]dioxino[2,3-f]quinolin-10-yl)oxy)-3-fluorophenyl)-N-(4-fluorophenyl)cyclopropan-1,1-dicarboxamide] | < 50 |
| O=C(Nc1ccc(F)cc1)C1(C(=O)Nc2ccc(Oc3ccnc4cc(OCCCN5CCCCC5)c5c(c34)OCCO5)c(F)c2)CC1 [Example 9, N-(4-((5-(3-(piperidin-1-yl)propoxy)-2,3-dihydro-[1,4]dioxino[2,3-f]quinolin-10-yl)oxy)-3-fluorophenyl)-N-(4-fluorophenyl)cyclopropan-1,1-dicarboxamide] | < 50 |
| COCCOc1cc2nccc(Oc3ccc(NC(=O)C4(C(=O)Nc5ccc(F)cc5)CC4)cc3F)c2c2c1OCCO2 [Example 10, N-(3-fluoro-4-((5-(2-methoxyethoxy)-2,3-dihydro-[1,4]dioxino[2,3-f]quinolin-10-yl)oxy)phenyl)-N-(4-fluorophenyl)cyclopropan-1,1-dicarboxamide] | < 50 |
| O=C(Nc1ccc(F)cc1)C1(C(=O)Nc2ccc(Oc3ccnc4cc(OCCCO)c5c(c34)OCCO5)c(F)c2)CC1 [Example 13, N-(3-fluoro-4-((5-(3-hydroxypropoxy)-2,3-dihydro-[1,4]dioxino[2,3-f]quinolin-10-yl)oxy)phenyl)-N-(4-fluorophenyl)cyclopropan-1,1-dicarboxamide] | < 50 |
| COCCCOc1cc2nccc(Oc3ccc(NC(=O)C4(C(=O)Nc5ccc(F)cc5)CC4)cc3F)c2c2c1OCCO2 [Example 14, N-(3-fluoro-4-((5-(3-methoxypropoxy)-2,3-dihydro-[1,4]dioxino[2,3-f]quinolin-10-yl)oxy)phenyl)-N-(4-fluorophenyl)cyclopropan-1,1-dicarboxamide] | < 50 |
| COCCN(C)CCCOc1cc2nccc(Oc3ccc(NC(=O)C4(C(=O)Nc5ccc(F)cc5)CC4)cc3F)c2c2c1OCCO2 [Example 15, N-(3-fluoro-4-((5-(3-((2-methoxyethyl)(methyl)amino)propoxy)-2,3-dihydro-[1,4]dioxino [2,3-f]quinolin-10-yl)oxy)phenyl)-N-(4-fluorophenyl)cyclopropan-1,1-dicarboxamide] | < 50 |
| O=C(Nc1ccc(F)cc1)C1(C(=O)Nc2ccc(Oc3ccnc4cc(OC5CCOC5)c5c(c34)OCCO5)c(F)c2)CC1 (centres unmarked) [Example 17, N-(3-fluoro-4-((5-((tetrahydrofuran-3-yl)oxy)-2,3-dihydro-[1,4]dioxino[2,3-f]quinolin-10-yl)oxy)phenyl)-N-(4-fluorophenyl)cyclopropan-1,1-dicarboxamide] | < 50 |
| CN1CCN(CCCOc2cc3nccc(Oc4ccc(NC(=O)C5(C(=O)Nc6ccc(F)cc6)CC5)cc4F)c3c3c2OCCO3)CC1 [Example 21, N-(4-((5-(3-(4-methylpiperazin-1-yl)propoxy)-2,3-dihydro-[1,4]dioxino[2,3-f]quinolin-10-yl)oxy)-3-fluorophenyl)-N-(4-fluorophenyl)cyclopropan-1,1-dicarboxamide] | < 50 |
| CC1(O)CCN(CCCOc2cc3nccc(Oc4ccc(NC(=O)C5(C(=O)Nc6ccc(F)cc6)CC5)cc4F)c3c3c2OCCO3)CC1 [Example 22, N-(3-fluoro-4-((5-(3-(4-hydroxy-4-methylpiperidin-1-yl)propoxy)-2,3-dihydro-[1,4]dioxino[2,3-f]quinolin-10-yl)oxy)phenyl)-N-(4-fluorophenyl)cyclopropan-1,1-dicarboxamide] | < 50 |
| CN(CCCOc1cc2nccc(Oc3ccc(NC(=O)C4(C(=O)Nc5ccc(F)cc5)CC4)cc3F)c2c2c1OCCO2)C1CCC1 [Example 23, N-(4-((5-(3-(cyclobutyl(methyl)amino)propoxy)-2,3-dihydro-[1,4]dioxino[2,3-f]quinolin-10-yl)oxy)-3-fluorophenyl)-N-(4-fluorophenyl)cyclopropan-1,1-dicarboxamide] | < 50 |
| O=C(Nc1ccc(F)cc1)C1(C(=O)Nc2ccc(Oc3ccnc4cc(OCCCN5CCS(=O)(=O)CC5)c5c(c34)OCCO5)c(F)c2)CC1 [Example 24, N-(4-((5-(3-(1,1-dioxothiomorpholin-4-yl)propoxy)-2,3-dihydro-[1,4]dioxino[2,3-f]quinolin-10-yl)oxy)-3-fluorophenyl)-N-(4-fluorophenyl)cyclopropan-1,1-dicarboxamide] | < 50 |
| O=C(Nc1ccc(F)cc1)C1(C(=O)Nc2ccc(Oc3ccnc4cc(OCCCN5CCCC5)c5c(c34)OCCO5)c(F)c2)CC1 [Example 25, N-(3-fluoro-4-((5-(3-(pyrrolidin-1-yl)propoxy)-2,3-dihydro-[1,4]dioxino[2,3-f]quinolin-10-yl)oxy)phenyl)-N-(4-fluorophenyl)cyclopropan-1,1-dicarboxamide] | < 50 |
| N#CCCCOc1cc2nccc(Oc3ccc(NC(=O)C4(C(=O)Nc5ccc(F)cc5)CC4)cc3F)c2c2c1OCCO2 [Example 26, N-(3-fluoro-4-((5-(3-cyanopropoxy)-2,3-dihydro-[1,4]dioxino[2,3-f]quinolin-10-yl)oxy)phenyl)-N-(4-fluorophenyl)cyclopropan-1,1-dicarboxamide] | < 50 |
| CN(C)CCCCCCOc1cc2nccc(Oc3ccc(NC(=O)C4(C(=O)Nc5ccc(F)cc5)CC4)cc3F)c2c2c1OCCO2 [Example 27, N-(4-((5-((6-(dimethylamino)hexyl)oxy)-2,3-dihydro-[1,4]dioxino[2,3-f]quinolin-10-yl)oxy)-3-fluorophenyl)-N-(4-fluorophenyl)cyclopropan-1,1-dicarboxamide] | < 50 |
| O=C(Nc1ccc(F)cc1)C1(C(=O)Nc2ccc(Oc3ccnc4cc(OC5COC5)c5c(c34)OCCO5)c(F)c2)CC1 [Example 28, N-(3-fluoro-4-((5-(oxetan-3-yloxy)-2,3-dihydro-[1,4]dioxino[2,3-f]quinolin-10-yl)oxy)phenyl)-N-(4-fluorophenyl)cyclopropan-1,1-dicarboxamide] | < 50 |
| CC1(C)CCN(CCCOc2cc3nccc(Oc4ccc(NC(=O)C5(C(=O)Nc6ccc(F)cc6)CC5)cc4F)c3c3c2OCCO3)CC1 [Example 29, N-(3-fluoro-4-((5-(3-(4,4-dimethylpiperidin-1-yl)propoxy)-2,3-dihydro-[1,4]dioxino[2,3-f]quinolin-10-yl)oxy)phenyl)-N-(4-fluorophenyl)cyclopropan-1,1-dicarboxamide] | < 50 |
